Assay results published in US11878973B2, “Bicyclic compounds and their uses” (NOVARTIS AG, priority 2021, dated 2024).

Experiments:
WRN helicase = WRN helicase (Homo sapiens (Human), UniProt Q14191); test: In vitro enzymatic activity assay on WRN helicase (DNA dependent ATPase assay, ADP-Glo); type: biochemical; settings: geometric means of at least 2 determinations; read-out: WRN ATPase Activity (IC50)
How it was run: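 DNA-dependent ATPase activity was measured by ADP-Glo luminescent ADP detection after a 30-min room-temperature reaction. The reaction contained 10 nM WRN (residues N517-P1238), 0.2 nM FLAP26 and 300 µM ATP at pH 7.5 with 2 mM MgCl2. Compounds were tested as 10-point half-log series in duplicate; IC50 values are geometric means from at least two independent experiments.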

SW48 cells = test: Proliferation assay SW48 (CellTiterGlo, 96 hours); settings: Homo sapiens, SW48, read-out: Proliferation Assay SW48 (GI50)
DLD1-WRN-KO cells = test: Proliferation assay DLD1-WRN-KO (CellTiterGlo, 96 hours; off-target effects); settings: Homo sapiens, read-out: Proliferation Assay DLD1-WRN-KO (GI50)

Sequence of WRN helicase (Q14191 517-1238): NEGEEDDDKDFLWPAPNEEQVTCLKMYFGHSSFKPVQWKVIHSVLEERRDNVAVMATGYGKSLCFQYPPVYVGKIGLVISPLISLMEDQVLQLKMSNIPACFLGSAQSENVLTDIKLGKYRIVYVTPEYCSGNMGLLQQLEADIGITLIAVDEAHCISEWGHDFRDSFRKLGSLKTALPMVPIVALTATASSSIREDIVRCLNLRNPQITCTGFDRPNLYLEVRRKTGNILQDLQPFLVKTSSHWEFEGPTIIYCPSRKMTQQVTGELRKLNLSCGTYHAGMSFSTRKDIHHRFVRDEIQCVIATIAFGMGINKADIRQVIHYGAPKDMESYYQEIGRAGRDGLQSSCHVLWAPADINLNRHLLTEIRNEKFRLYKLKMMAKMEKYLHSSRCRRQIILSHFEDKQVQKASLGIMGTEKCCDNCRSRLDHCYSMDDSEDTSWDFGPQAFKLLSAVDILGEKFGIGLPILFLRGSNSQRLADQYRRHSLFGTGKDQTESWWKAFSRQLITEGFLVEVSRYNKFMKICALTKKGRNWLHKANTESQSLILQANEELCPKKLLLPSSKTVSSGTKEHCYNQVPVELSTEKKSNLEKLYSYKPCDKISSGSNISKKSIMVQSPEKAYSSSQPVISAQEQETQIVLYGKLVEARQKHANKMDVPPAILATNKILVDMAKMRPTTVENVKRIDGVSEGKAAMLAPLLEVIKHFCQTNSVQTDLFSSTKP

Structure (SMILES) | IC50 (WRN helicase) [nM] | GI50 (SW48 cells) [nM] | GI50 (DLD1-WRN-KO cells) [nM]
CCc1c(N2CCN(C(=O)c3ncccc3O)CC2)c(=O)n2nc(C3=COCCO3)nc2n1CC(=O)Nc1ccc(C(F)(F)F)cc1C [Example 113, 2-(2-(5,6-dihydro-1,4-dioxin-2-yl)-5-ethyl-6-(4-(3-hydroxypicolinoyl)piperazin-1-yl)-7-oxo-[1,2,4]triazolo[1,5-a]pyrimidin-4(7H)-yl)-N-(2-methyl-4-(trifluoromethyl)phenyl)acetamide] | 40 | 120 | > 10000
CCc1c(N2CCN(C(=O)c3ncccc3O)CC2)c(=O)n2nc(C3=CCCOC3)nc2n1CC(=O)Nc1ccc(C(F)(F)F)cc1C [Example 114, 2-(2-(5,6-dihydro-2H-pyran-3-yl)-5-ethyl-6-(4-(3-hydroxypicolinoyl)piperazin-1-yl)-7-oxo-[1,2,4]triazolo[1,5-a]pyrimidin-4(7H)-yl)-N-(2-methyl-4-(trifluoromethyl)phenyl)acetamide] | 90 | 180 | > 10000
CCc1c(N2CCN(C(=O)c3ncccc3O)CC2)c(=O)n2nc(C3=CCOCC3)nc2n1CC(=O)Nc1cc(F)c(C(F)(F)F)cc1Cl [Example 116, N-(2-chloro-5-fluoro-4-(trifluoromethyl)phenyl)-2-(2-(3,6-dihydro-2H-pyran-4-yl)-5-ethyl-6-(4-(3-hydroxypicolinoyl)piperazin-1-yl)-7-oxo-[1,2,4]triazolo[1,5-a]pyrimidin-4(7H)-yl)acetamide] | 60 | 80 | 6600
Cc1c(N2CCN(C(=O)c3ncccc3O)CC2)c(=O)n2nc(C3=CCOCC3)nc2n1CC(=O)Nc1ccc(C(F)(F)F)cc1 [Example 117, 2-(2-(3,6-dihydro-2H-pyran-4-yl)-6-(4-(3-hydroxypicolinoyl)piperazin-1-yl)-5-methyl-7-oxo-[1,2,4]triazolo[1,5-a]pyrimidin-4(7H)-yl)-N-(4-(trifluoromethyl)phenyl)acetamide] | 40 | 260 | > 10000
CCc1c(N2C[C@@H](C)N(C(=O)c3ncnc(C)c3O)C[C@@H]2C)c(=O)n2nc(C3=CCOCC3)nc2n1CC(=O)Nc1ccc(C(F)(F)F)cc1Cl [Example 118, N-(2-chloro-4-(trifluoromethyl)phenyl)-2-(2-(3,6-dihydro-2H-pyran-4-yl)-5-ethyl-6-((2S,5R)-4-(5-hydroxy-6-methylpyrimidine-4-carbonyl)-2,5-dimethylpiperazin-1-yl)-7-oxo-[1,2,4]triazolo[1,5-a]pyrimidin-4(7H)-yl)acetamide] | 90 | 450 | > 10000
CCc1c(N2CCN(C(=O)c3ncnc(C)c3O)[C@H](C)[C@H]2C)c(=O)n2nc(C3=CCOCC3)nc2n1CC(=O)Nc1ccc(C(F)(F)F)cc1Cl [Example 119, N-(2-chloro-4-(trifluoromethyl)phenyl)-2-(2-(3,6-dihydro-2H-pyran-4-yl)-5-ethyl-6-((2R,3R)-4-(5-hydroxy-6-methylpyrimidine-4-carbonyl)-2,3-dimethylpiperazin-1-yl)-7-oxo-[1,2,4]triazolo[1,5-a]pyrimidin-4(7H)-yl)acetamide] | 160 | 50 | > 10000
CCc1c(N2CCN(C(=O)c3ncnc(C)c3O)CC2)c(=O)n2nc(C3=CC[C@H](F)CO3)nc2n1CC(=O)Nc1ccc(C(F)(F)F)cc1Cl [Example 127, (S)—N-(2-chloro-4-(trifluoromethyl)phenyl)-2-(5-ethyl-2-(3-fluoro-3,4-dihydro-2H-pyran-6-yl)-6-(4-(5-hydroxy-6-methylpyrimidine-4-carbonyl)piperazin-1-yl)-7-oxo-[1,2,4]triazolo[1,5-a]pyrimidin-4(7H)-yl)acetamide] | 80 | 90 | > 10000
CCc1c(N2CCN(C(=O)c3ncnc(C)c3O)CC2)c(=O)n2nc(C3=CCN(C(=O)OC(C)(C)C)CC3)nc2n1CC(=O)Nc1ccc(C(F)(F)F)cc1C [Example 130, tert-butyl 4-(5-ethyl-6-(4-(5-hydroxy-6-methylpyrimidine-4-carbonyl)piperazin-1-yl)-4-(2-((2-methyl-4-(trifluoromethyl)phenyl)amino)-2-oxoethyl)-7-oxo-4,7-dihydro-[1,2,4]triazolo[1,5-a]pyrimidin-2-yl)-3,6-dihydropyridine-1 (2H)-carboxylate] | 100 | 50 | > 10000
Cc1c(C2CCN(C(=O)c3ncccc3O)CC2)c(=O)n2nc(C3=CCOCC3)nc2n1CC(=O)Nc1ccc(C(F)(F)F)cc1 [Example 136, 2-(2-(3,6-dihydro-2H-pyran-4-yl)-6-(1-(3-hydroxypicolinoyl)piperidin-4-yl)-5-methyl-7-oxo-[1,2,4]triazolo[1,5-a]pyrimidin-4(7H)-yl)-N-(4-(trifluoromethyl)phenyl)acetamide] | 80 | 650 | > 10000

More lines, in order of falling IC50 (WRN helicase), values ahead:

IC50 (WRN helicase) [nM] | GI50 (SW48 cells) [nM] | GI50 (DLD1-WRN-KO cells) [nM] | Structure (SMILES)
500 | 2550 | > 10000 | Cc1nc(C(F)(F)F)ccc1NC(=O)Cn1c(C)c(N2CCN(C(=O)c3ncccc3O)CC2)c(=O)n2nc(C3=CCOCC3)nc12 [Example 129, 2-(2-(3,6-dihydro-2H-pyran-4-yl)-6-(4-(3-hydroxypicolinoyl)piperazin-1-yl)-5-methyl-7-oxo-[1,2,4]triazolo[1,5-a]pyrimidin-4(7H)-yl)-N-(2-methyl-6-(trifluoromethyl)pyridin-3-yl)acetamide]
470 | 930 | > 10000 | CCc1c(N2CCN(C(=O)c3ncnc(C)c3O)[C@@H](C)[C@@H]2C)c(=O)n2nc(C3=CCOCC3)nc2n1CC(=O)Nc1ccc(C(F)(F)F)cc1Cl [Example 120, N-(2-chloro-4-(trifluoromethyl)phenyl)-2-(2-(3,6-dihydro-2H-pyran-4-yl)-5-ethyl-6-((2S,3S)-4-(5-hydroxy-6-methylpyrimidine-4-carbonyl)-2,3-dimethylpiperazin-1-yl)-7-oxo-[1,2,4]triazolo[1,5-a]pyrimidin-4(7H)-yl)acetamide]
360 | 390 | > 10000 | CCc1c(N2CCN(C(=O)c3ncnc(C)c3O)[C@@H]3CC[C@H]32)c(=O)n2nc(C3=CCOCC3)nc2n1CC(=O)Nc1ccc(C(F)(F)F)cc1Cl [Example 124, N-(2-chloro-4-(trifluoromethyl)phenyl)-2-(2-(3,6-dihydro-2H-pyran-4-yl)-5-ethyl-6-((1R,6R)-5-(5-hydroxy-6-methylpyrimidine-4-carbonyl)-2,5-diazabicyclo[4.2.0]octan-2-yl)-7-oxo-[1,2,4]triazolo[1,5-a]pyrimidin-4(7H)-yl)acetamide]
170 | 200 | > 10000 | CCc1c(N2CCN(C(=O)c3ncccc3O)CC2)c(=O)n2nc(C3=CCN(CC(F)F)CC3)nc2n1CC(=O)Nc1ccc(C(F)(F)F)cc1C [Example 115, 2-(2-(1-(2,2-difluoroethyl)-1,2,3,6-tetrahydropyridin-4-yl)-5-ethyl-6-(4-(3-hydroxypicolinoyl)piperazin-1-yl)-7-oxo-[1,2,4]triazolo[1,5-a]pyrimidin-4(7H)-yl)-N-(2-methyl-4-(trifluoromethyl)phenyl)acetamide]
130 | 280 | > 10000 | Cc1cc(C(F)(F)F)ccc1NC(=O)Cn1c(CCO)c(N2CCN(C(=O)c3ncccc3O)CC2)c(=O)n2nc(C3=CCOCC3)nc12 [Example 135, 2-(2-(3,6-dihydro-2H-pyran-4-yl)-5-(2-hydroxyethyl)-6-(4-(3-hydroxypicolinoyl)piperazin-1-yl)-7-oxo-[1,2,4]triazolo[1,5-a]pyrimidin-4(7H)-yl)-N-(2-methyl-4-(trifluoromethyl)phenyl)acetamide]
80 | 690 | > 10000 | CCc1c(N2CCN(C(=O)c3nc(N4CCN(C)CC4)ncc3O)CC2)c(=O)n2nc(C3=CCOCC3)nc2n1CC(=O)Nc1ccc(C(F)(F)F)cc1C [Example 128, 2-(2-(3,6-dihydro-2H-pyran-4-yl)-5-ethyl-6-(4-(5-hydroxy-2-(4-methylpiperazin-1-yl)pyrimidine-4-carbonyl)piperazin-1-yl)-7-oxo-[1,2,4]triazolo[1,5-a]pyrimidin-4(7H)-yl)-N-(2-methyl-4-(trifluoromethyl)phenyl)acetamide]
60 | 210 | > 10000 | O=C(Cn1c(C2CC2)c(N2CCN(C(=O)c3ncccc3O)CC2)c(=O)n2nc(C3=CCOCC3)nc12)Nc1ccc(C(F)(F)F)cc1 [Example 134, 2-(5-cyclopropyl-2-(3,6-dihydro-2H-pyran-4-yl)-6-(4-(3-hydroxypicolinoyl)piperazin-1-yl)-7-oxo-[1,2,4]triazolo[1,5-a]pyrimidin-4(7H)-yl)-N-(4-(trifluoromethyl)phenyl)acetamide]
50 | 240 | 6100 | CCc1c(N2CCN(S(=O)(=O)c3ncccc3O)CC2)c(=O)n2nc(C3=CCOCC3)nc2n1CC(=O)Nc1ccc(C(F)(F)F)cc1Cl [Example 137, N-(2-chloro-4-(trifluoromethyl)phenyl)-2-(2-(3,6-dihydro-2H-pyran-4-yl)-5-ethyl-6-(4-((3-hydroxypyridin-2-yl)sulfonyl)piperazin-1-yl)-7-oxo-[1,2,4]triazolo[1,5-a]pyrimidin-4(7H)-yl)acetamide]
30 | 10 | > 10000 | CCc1c(N2CCN(C(=O)c3ncnc(C)c3O)[C@H]3CC[C@@H]32)c(=O)n2nc(C3=CCOCC3)nc2n1CC(=O)Nc1ccc(C(F)(F)F)cc1Cl [Example 125, N-(2-chloro-4-(trifluoromethyl)phenyl)-2-(2-(3,6-dihydro-2H-pyran-4-yl)-5-ethyl-6-((1 S,6S)-5-(5-hydroxy-6-methylpyrimidine-4-carbonyl)-2,5-diazabicyclo[4.2.0]octan-2-yl)-7-oxo-[1,2,4]triazolo[1,5-a]pyrimidin-4(7H)-yl)acetamide]
